Measurements reported in patent US12486234B2, “PAPD5 inhibitors and methods of use thereof” (Children's Medical Center Corporation, priority 2019, dated 2025).

Legend:
[1] = molecular target: T1, PAPD5 (Homo sapiens, UniProt Q8NDF8); test: RNA oligo-adenylation (oligo-extension) inhibition assay with recombinant PAPD5; type: biochemical; parameters: key: minimal activity (0); range from minimal activity (0) to that of compound 1 (+++); range from minimal activity (0) to that of compound 1 (+++); that of compound 1 (+++); conditions: qualitative measure of RNA oligo-extension inhibition, relative to compound 1
T1 construct: made in house
T1 sequence (Q8NDF8 68-698 isoform Q8NDF8-5 limits assumed): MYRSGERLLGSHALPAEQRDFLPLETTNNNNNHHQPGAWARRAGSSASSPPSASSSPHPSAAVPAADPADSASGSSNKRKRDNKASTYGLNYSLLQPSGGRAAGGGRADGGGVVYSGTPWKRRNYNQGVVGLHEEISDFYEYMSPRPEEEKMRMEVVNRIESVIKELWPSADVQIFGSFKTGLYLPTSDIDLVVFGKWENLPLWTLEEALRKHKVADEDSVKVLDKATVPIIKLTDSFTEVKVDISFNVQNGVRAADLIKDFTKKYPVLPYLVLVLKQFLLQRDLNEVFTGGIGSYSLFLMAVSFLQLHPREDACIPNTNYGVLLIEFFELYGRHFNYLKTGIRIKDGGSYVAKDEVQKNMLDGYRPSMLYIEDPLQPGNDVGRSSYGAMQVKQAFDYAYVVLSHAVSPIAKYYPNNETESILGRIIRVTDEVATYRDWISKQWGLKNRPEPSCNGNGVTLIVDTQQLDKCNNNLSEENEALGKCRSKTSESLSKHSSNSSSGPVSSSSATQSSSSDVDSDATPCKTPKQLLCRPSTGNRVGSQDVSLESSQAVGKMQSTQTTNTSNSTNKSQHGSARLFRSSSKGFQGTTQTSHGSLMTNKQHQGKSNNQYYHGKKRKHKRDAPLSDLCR
Protocol: An in vitro RNA polyadenylation assay using recombinant PAPD5, ATP and an oligonucleotide substrate utilized the following phenomenon: ATP utilization by PAPD5 reads out as a decreased luminescence signal produced by luciferase (KinaseGlo, Promega, Madison, WI).
(§1) Qualitative measure of RNA oligo-extension inhibition for the tested compounds, expressed as range from minimal activity (0) to that of compound 1 (+++), and results of a DSF binding assay (shown as shift in temperature at 100 μM of the compound) are shown in the Table 2 below.

[2] = molecular target: T1, PAPD5; test: DSF binding assay (shift in temperature); conditions: shift in temperature at 100 μM of the compound
Protocol: as §1

Compound | Inhibition of PAPD5 RNA oligo adenylation [1] | ΔTm at 100 µM [2] [°C]
COCCCOc1cc2ncc(C(=O)N(C)C)c(Nc3ccccc3C(=O)O)c2cc1Br [Compound 57A, 2-[[6-bromo-3-(dimethylcarbamoyl)-7-(3-methoxypropoxy)-4-quinolyl]amino]benzoic acid] | +++ | 9.8
COCCCOc1cc2ncc(-c3ncco3)c(Nc3ccccc3C(=O)O)c2cc1OC [Compound 58A, 2-[[6-methoxy-7-(3-methoxypropoxy)-3-oxazol-2-yl-4-quinolyl]amino]benzoic acid] | + | 8.5
NS(=O)(=O)c1cnc2ccc(Br)cc2c1Nc1ccccc1C(=O)O [Compound 61A, 2-[(6-bromo-3-sulfamoyl-4-quinolyl)amino]benzoic acid] | +++ | 11.1
NS(=O)(=O)c1cnc2ccc(Cl)cc2c1Nc1ccccc1C(=O)O [Compound 63A, 2-[(6-chloro-3-sulfamoyl-4-quinolyl)amino]benzoic acid] | +++ | 9.3
O=C(O)c1ccccc1Nc1c(S(=O)(=O)N2CCOCC2)cnc2ccc(Br)cc12 [Compound 70A, 2-[(6-bromo-3-morpholinosulfonyl-4-quinolyl)amino]benzoic acid] | +++ | 13.7
O=C(O)c1c(O)cccc1Nc1c(S(=O)(=O)N2CCOCC2)cnc2ccc(Br)cc12 [Compound 78A, 2-[(6-bromo-3-morpholinosulfonyl-4-quinolyl)amino]-6-hydroxy-benzoic acid] | +++ | 17.1
COc1cccc(Nc2c(S(=O)(=O)N3CCOCC3)cnc3ccc(Br)cc23)c1C(=O)O [Compound 78A-INT, 2-[(6-bromo-3-morpholinosulfonyl-4-quinolyl)amino]-6-methoxy-benzoic acid] | 0 | 1.1
O=C(O)c1ccccc1Nc1c(S(=O)(=O)N2CCOCC2)cnc2ccc(Cl)cc12 [Compound 80A, 2-[(6-chloro-3-morpholinosulfonyl-4-quinolyl)amino]benzoic acid] | +++ | 16.4
O=C(O)c1c(O)cccc1Nc1c(-c2ncco2)cnc2ccc(Cl)cc12 [Compound 82A, 2-[(6-chloro-3-oxazol-2-yl-4-quinolyl)amino]-6-hydroxy-benzoic acid] | +++ | 13.5
